US20100130432A1, “Non-Natural Amino Acids and Neurotensin Analogues Thereof” (priority 2005, published 2010)
Where a name gives a salt, the structure may show the parent alone. Marks after values point to notes of the source that are not given here. Non-standard residues stand in square brackets, D forms with d. Residues, ends and D or L forms follow the SMILES beside them. No end group written: not given here. *: point of attachment. X5 = [N-]=[N+]=N[C@@H](CCCCCN)C(=O)*; X2 = C[C@@H](CCC[N+](C)(C)C)C(=O)*; Tle = CC(C)(C)[C@H](N)C(=O)O; hLys = NCCCCC[C@H](N)C(=O)O; X1 = C[C@@H](CCCCCN)C(=O)*; Orn = NCCC[C@H](N)C(=O)O

Assays:
rats [1] = assay: Hotplate assay; type: in vivo, rat; conditions: for MPE (I.P.) / Tmax (I.P.) of % MPE / MPE (oral) / Tmax (Oral) of % MPE: hotplate; for MPE (I.P.) / Tmax (I.P.) of % MPE: IP at 10 mg/kg; for MPE (oral) / Tmax (Oral) of % MPE: orally at 20 mg/kg
Description: Animals. Experimentally naïve male Sprague-Dawley rats from Charles River Laboratories, Raleigh, N.C. (230-260 g) or Harlan, Prattville Ala. (240-280 g), were maintained 4 per cage in animal quarters on a regular light/dark cycle (lights on 0600-1800) with ad libitum food and water for approximately 1 week before the experiment. The range of body weights on the 2 days of testing was 230-260 grams. The experiment was done on one day, with animals allowed to recover for three days before experiments are repeated.
Peptide Preparation. Test articles are prepared at the desired concentration in saline for either IP injection or gavage administration with N=6 for each dose and vehicle. Morphine (5 mg/kg) is used as a control for certain protocols. […] Apomorphine HCl (Sigma-Aldrich, St. Louis, Mo.) was dissolved in distilled water at a concentration of 5 mg/mL within 40 minutes of administration for injection at 1 mL/kg S.C. to give a dose of 5 mg/kg. When complete ED50s are determined, dosing range of the peptide will be 10, 3, 1, 0.3, 0.1 of the estimated ED50, covering two log orders of range.
The Hotplate Assay. The hotplate assay, a standard rat model for […] pain (see Le Bars et al., Pharmacol. Rev. 53: 597-652 (2001) and Chapman et al., Pain 22:1-31 (2002)), was performed as follows. A hotplate maintained at 52° C. to 53° C. was enclosed on four sides in a plexiglass chamber that extended 6 in. above the plate. Animals were placed on the plate, and the latency between the time a rat was placed on the surface and when it lifts or licks a back paw (indicative of pain sensation) was determined. Animals are removed immediately at the cutoff latency of 30 seconds. Assays are scored as the percent of maximal possible effect (% MPE) defined as 100%, which corresponds to the rats remaining on the hotplate for 30 seconds without responding. Thus, % MPE are calculated using the following equation: % MPE=[(post-drug latency−pre-drug latency)/(cut-off pre-drug latency)]×100%. N=6 or greater for all experiments.
Tmax indicates the time after dosing in which a maximum response was observed.

[2] = Brain distribution of ABS201 (LC/MS/MS)
Description: (§1) At selected time points, blood was removed or brain harvested and the concentration of the peptide analog determined using LC/MS/MS.
(§2) These samples were then used for the determination of plasma and brain drug levels by LC/MS/MS for estimating BBB penetration and pharmacokinetic parameters.

[3] = Pharmacokinetics of ABS201 in blood/plasma (LC/MS/MS); conditions: SD, rat, in vivo, iv, 100 mg/kg
Description: as §1, §2

rats [4] = assay: Formalin assay; type: in vivo, rat; conditions: ABS212 10 mg/kg, Morphine 5 mg/kg
Experimental: Formalin Assay. […] Animals were scored every minute on the following scale: 0=forepaw flat on floor, 1=forepaw just touching floor, 2=forepaw held up off of floor, and 3=forepaw licked or bitten. […] The animals were immediately be placed into the observation cages, and their behavior recorded over the following 30 minutes. After each experiment, rats were euthanized with CO2 followed by cervical dislocation. An average Pain Rating over time versus the baseline and formalin-only controls for each peptide tested were plotted, and statistical analysis were performed using a one-way analysis of variance (ANOVA). Differences were considered statistically significant at the 5% confidence interval. N=6 or greater for all experiments.

rats [5] = assay: Tail flick assay; type: in vivo, rat; conditions: ABS212 10 mg/kg, Morphine 5 mg/kg
Experimental: The Tail Flick Assay. Each of 6 rats per experiment were placed in a Plexiglas restraint box. A standard laboratory hot water bath was maintained at 49° C. The distal 3 cm of the rat's tail was submerged into the water, and the time from insertion to tail flick or removal of tail from the water was recorded. Animals are removed immediate4ly at the cutoff latency of 10 seconds. MPEs were calculated, with a MPE of 100% corresponding to the rat's tail remaining in the water bath for 10 seconds. This was repeated 3 times. The tail was dried and allowed to rest for 20 seconds between trials. The rat was then given the appropriate amount of peptide and the experiment repeated at 30 and 60 minutes. Treatment conditions were distributed over the study in a counterbalanced design to control for such factors as calendar period and order of dosing. N=6 or greater for all experiments.

rats [6] = assay: Clinical observation after high IV or PO dose; type: in vivo, rat
Experimental: During the 2 and 24 hour post-dosing clinical observation periods, measurements of core body temperatures were taken.

rats [7] = assay: d-Amphetamine induced hyperlocomotion / locomotor activity chambers; type: in vivo, rat; conditions: rat, in vivo
Description: Sound- and light-attenuated locomotor cages are used to measure the ability of potential candidates to decrease d-amphetamine-induced hyperactivity.
d-Amphetamine induced hyperlocomotion. Experimentally I male Sprague-Dawley rats were housed as described above. Rats were handled for three days prior to testing to minimize experimenter induced hyperlocomotion on test day. For experiments, sound- and light-attenuated automated photocell beam activity chambers (AccuScan Instruments, Inc., Columbus, Ohio) were used to measure locomotion. Cages were connected to a VersaMax Analyzer (AccuScan) in conjunction with an IBM computer using VersaMax 1.80-0146 software (AccuScan) to record vertical and horizontal activity. Total activity values recorded were the sum of vertical and horizontal activity. […]
Rats were placed in the activity chambers for 30 minutes to habituate and establish baseline activity levels. Then, rats were removed and given an IP or oral dose of peptide (N=7) or saline (N=8) and returned to the chamber to establish the peptide's effect on spontaneous activity levels. About 30 minutes after administration, rats were removed and given an IP injection of d-amphetamine (1 mg/kg) or vehicle and returned to the chamber for a further 1 hr to assess the effect of the peptide on induced hyperlocomotion.
Chronic Testing Protocols.
Separate two-factor ANOVAs for DOSE X TIME were performed for each different time-phase of the assay. Phases for the IP dosing and oral dosing experiments consisted of habituation (time points 10-60), drug (time points 70-120), and amphetamine (time points 130-240).

rats [8] = assay: Induced hypothermia (rectal temperature) after IP or oral administration; conditions: IP 5 mg/kg, Table 5
Description: Hypothermia as a Preliminary Screen of CNS Activity.
Animal Restraint. Rats were restrained in Plas-Labs® plastic cages fitted with wooden dowels to restrict movement. Rectal temperature probes (Physitemp®, RET-2, Clifton, N.J.), lubricated with mineral oil, were inserted into the rectum of each animal. Probes were connected to a microprobe thermometer (Physitemp®, BAT-12) in conjunction with a thermocouple selector (Physitemp®, SWT-5). Rats were allowed to acclimate to the cages for 1 hr prior to IP injection.
Peptide Preparation. […] For oral administration, the test article was administered directly into the animals' stomach by gavaging. Controls involved the administration of 0.9% NaCl. Thus, peptides were dissolved in saline, and following the equilibration period, rats were given an IP injection of peptide (5 mg/kg) or saline (1 mL/kg). […]
Hypothermia. […] For each rat, a thermistor probe was placed 4.5 cm into the rectum; baseline temperatures were recorded for 1 hr to allow habituation to the cages prior to injection of compound. […]
The former activity is most easily monitored by measuring the extent of induced hypothermia (core body temperature loss), which is a measure of NTR-1 binding and agonism and thus antipsychotic activity. Hypothermia is followed routinely over time through insertion of a thermometer probe hooked up to a digital readout box into the anus of the rats.

rats [9] = conditions: rat, in vivo
Experimental: (§3) Cataleptic Analysis. […] To circumvent these potential confounding factors, tests are performed on an animal only once in a quiet, controlled environment.
(§4) Catalepsy Assessment. […] Rats were given an IP injection of peptide (5 mg/Kg), saline, or haloperidol (1 mg/kg). After 3 hours, catalepsy was measured using the horizontal bar test. Briefly, the front paws were placed directly on a horizontal bar 5 mm in diameter placed 7.5 cm above the cage floor. The rat was held in this position for 3 sec and then released. The time from release until the paws return to the cage floor was measured and recorded. A cut-off time of 30 sec was observed; this indicated a fully cataleptic animal as cataleptic animals are frozen to the bar. […] Measures were repeated every 30 min for 4 hr. Data are means±SEM (p<0.01).

[10] = Pharmacokinetics of ABS212 in plasma (LC/MS/MS); type: in vivo, rat
Description: These samples were used for the determination of plasma parent drug concentrations by LC/MS/MS for estimating pharmacokinetic parameters and oral bioavailability.

rats [11] = assay: Catalepsy, horizontal bar test; conditions: IP 1 mg/kg, cut-off 30 sec
Experimental: as §3, §4

NTR-1 = NTR-1 (Homo sapiens, UniProt P30989); assay: Competitive NTR binding versus radiolabeled NT[8-13]
Sequence of NTR-1 (P30989 whole entry, species assumed): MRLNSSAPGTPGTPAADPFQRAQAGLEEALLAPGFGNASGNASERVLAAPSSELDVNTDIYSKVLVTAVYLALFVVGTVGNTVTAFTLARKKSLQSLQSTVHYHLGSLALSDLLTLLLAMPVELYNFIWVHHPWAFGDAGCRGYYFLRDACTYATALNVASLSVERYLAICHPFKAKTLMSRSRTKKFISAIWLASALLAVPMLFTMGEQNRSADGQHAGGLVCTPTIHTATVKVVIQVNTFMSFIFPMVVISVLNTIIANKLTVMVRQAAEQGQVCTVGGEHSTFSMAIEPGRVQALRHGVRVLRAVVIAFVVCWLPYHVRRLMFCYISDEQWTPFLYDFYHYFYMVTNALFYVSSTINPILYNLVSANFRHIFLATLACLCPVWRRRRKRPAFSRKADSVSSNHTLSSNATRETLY

NTR-2 = NTR-2 (Homo sapiens, UniProt O95665); assay: as above
Sequence of NTR-2 (O95665 whole entry, species assumed): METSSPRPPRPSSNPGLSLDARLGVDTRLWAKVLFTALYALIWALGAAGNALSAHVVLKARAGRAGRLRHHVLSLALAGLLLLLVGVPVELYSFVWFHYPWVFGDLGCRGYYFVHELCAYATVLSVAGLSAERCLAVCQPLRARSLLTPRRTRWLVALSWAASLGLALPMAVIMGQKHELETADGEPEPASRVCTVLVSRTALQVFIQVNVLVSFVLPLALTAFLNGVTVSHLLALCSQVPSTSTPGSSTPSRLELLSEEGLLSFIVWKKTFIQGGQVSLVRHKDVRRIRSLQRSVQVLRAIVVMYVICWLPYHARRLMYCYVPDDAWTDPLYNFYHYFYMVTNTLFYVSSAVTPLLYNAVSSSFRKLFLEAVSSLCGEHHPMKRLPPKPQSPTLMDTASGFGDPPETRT

Arg-Arg-Pro-Tyr-tLeu-Leu [ABS237]
MPE (I.P.) (rats [1]): 50%
Tmax (I.P.) of % MPE (rats [1]): 30

CC(C)C[C@H](NC(=O)[C@@H](NC(=O)[C@H](Cc1ccc(O)cc1)NC(=O)[C@@H]1CCCN1C(=O)[C@H](CCCNC(=N)N)NC(=O)[C@@H](C)CCCCCN)C(C)(C)C)C(=O)O [ABS201.2HCl] (X1-RPY[Tle]L-OH)
AUC0-t in brain ([2]; 15 min intravenous infusion 100 mg/kg): 60.96 ng·h/g
Cmax ([2]; SD, rat, brain, iv, 100 mg/kg): 32.9 ng/g
half-life ([2]; SD, rat, brain, iv, 100 mg/kg): 4.85 h
Vd [3]: 16.1 L/kg
clearance [3]: 380 mL/min/kg

Arg-Arg-Pro-Tyr-t-Leu-Leu [ABS213]
MPE (I.P.) (rats [1]): 48%
Tmax (I.P.) of % MPE (rats [1]): 30

Lys-Arg-Pro-Tyr-t-Leu-Leu [ABS205]
analgesic effect relative to ABS212 (rats [1]; gavage 20 mg/kg): as much or more active than ABS212
MPE (I.P.) (rats [1]): 86%
Tmax (I.P.) of % MPE (rats [1]): 15-30
MPE (oral) (rats [1]): 66%
Tmax (Oral) of % MPE (rats [1]): 30

[hLys]RPY[Tle]L [ABS225]
MPE (I.P.) (rats [1]): 100%
Tmax (I.P.) of % MPE (rats [1]): 15-45
MPE (oral) (rats [1]): 38%
Tmax (Oral) of % MPE (rats [1]): 30

CN1CC[C@]23c4c5ccc(O)c4O[C@H]2[C@@H](O)C=C[C@H]3[C@H]1C5 [Morphine, reference compound]
analgesic effect over the time course (rats [4]): loses activity after 30 minutes
MPE (0 min) (rats [5]): 0.03 +/− 0.05
MPE (30 min) (rats [5]): 63.7 +/− 41.9
MPE (60 min) (rats [5]): 67.5 +/− 25.8

Orn-Arg-Pro-Tyr-t-Leu-Leu [ABS209]
MPE (I.P.) (rats [1]): 89%
Tmax (I.P.) of % MPE (rats [1]): 60

CC(C)C[C@H](NC(=O)[C@@H](NC(=O)[C@H](Cc1ccc(O)cc1)NC(=O)[C@@H]1CCCN1C(=O)[C@H](CCCNC(=N)N)NC(=O)[C@@H](C)CCCCCN)C(C)(C)C)C(=O)O [ABS201 HCl] (X1-RPY[Tle]L-OH)
clinical observation 24 hour post-dosing (rats [6]; IV 50 mg/kg): grossly normal; hypothermia was absent
clinical observation immediately after dosing (rats [6]; IV 50 mg/kg): obviously sedated
clinical observation two hour post-dosing (rats [6]; IV 50 mg/kg): marked hypothermia was present
clinical observation (rats [6]; PO 250 mg/kg): grossly normal at all time points

CC[C@H](C)[C@H](NC(=O)[C@H](Cc1ccc(O)cc1)NC(=O)[C@@H]1CCCN1C(=O)[C@H](CCCNC(=N)N)NC(=O)[C@@H](N)CCCNC(=N)N)C(=O)N[C@@H](CC(C)C)C(=O)O [NT(8-13), NH2-Arg-Arg-Pro-Tyr-Ile-Leu-COOH, reference compound]
Hyperlocomotion Inhibition (routes of administration) (rats [7]): CNS administration
Inhibits locomotor activity (routes of administration) (rats [7]): CNS administration
tmax (min) Time to maximal temperature decrease (rats [8]): 90 min
Δ in BT (° C.) Decrease in body temperature measured at tmax (rats [8]): −0.45 ± 0.17^d ° C.
catalepsy (rats [9]): No

CC(C)C[C@H](NC(=O)[C@@H](NC(=O)[C@H](Cc1ccc(O)cc1)NC(=O)[C@@H]1CCCN1C(=O)[C@H](CCCNC(=N)N)NC(=O)[C@@H](C)CCC[N+](C)(C)C)C(C)(C)C)C(=O)O [ABS-212.2HCL] (X2-RPY[Tle]L-OH)
clearance as % of rat hepatic blood flow ([10]; IV bolus 1 mg/kg): 32.33%
clearance as % of rat hepatic blood flow ([10]; IV bolus 5 mg/kg): 12.08%
clearance as % of rat hepatic blood flow ([10]; IV bolus […]): 12.08%

O=C(CCCN1CCC(O)(c2ccc(Cl)cc2)CC1)c1ccc(F)cc1 [Haloperidol, reference compound]
duration of catalepsy (rats [11]): greater than 30 sec

Boc-Arg-Pro-Tyr-t-Leu-Leu [ABS700]
MPE (I.P.) (rats [1]): 51%
Tmax (I.P.) of % MPE (rats [1]): 90

KRPY[Tle]L [ABS229]
MPE (I.P.) (rats [1]): 48%
Tmax (I.P.) of % MPE (rats [1]): 60

CC(C)C[C@H](NC(=O)[C@@H](NC(=O)[C@H](Cc1ccc(O)cc1)NC(=O)[C@@H]1CCCN1C(=O)[C@H](CCCNC(=N)N)NC(=O)[C@H](CCCCCN)N=[N+]=[N-])C(C)(C)C)C(=O)O [ABS13, N3-L-homolysine-Arg-Pro-Tyr-tertLeu-Leu-COOH] (X5-RPY[Tle]L-OH)
IC50 (NTR-1): 5.7 ± 0.37 nM
IC50 (NTR-2): 11.1 ± 0.1 nM

[Orn]RPY[Tle]L [ABS233]
MPE (I.P.) (rats [1]): 51%
Tmax (I.P.) of % MPE (rats [1]): 45
